Assays:
[1] = Prostaglandins, 5, (5) 455-463 (1974); cited from earlier work
[2] = in vivo; cited from earlier work
male Sprague-Dawly rats = test: antiulcer activity, pylorus-ligated fasted rats, samples given by gastric tube, stomach inspected for ulcers 21 hours later; assay type: in vivo, Sprague-Dawly rat; settings: for ED50: Rattus norvegicus, po, pylorus-ligated rats, 21 hours, figures in parenthesis indicate confidence limit; for b)/a) (ED50 diarrhea / ED50 antiulcer): ratio of diarrhea ED50 to antiulcer ED50, p.o., rats
Method: Each of ten male Sprague-Dawly rate, 12 weeks old, in one group was isolated in a cage with a large mesh wire net at the bottom during experimental period and prevented from coprophagia. During this period the animals were completely fasted for 48 hours and water was provided only for 32 hours from the beginning. The animal was anesthetized with ether, the pylorus was ligated through a short midline incision. The samples were administered with a gastric tube immediately after the ligation. The animals were sacrificed 21 hours later with chloroform and their abdomens were widely opened to take out the stomach. The stomach was opened for inspection of ulcers.

[3] = diarrhea activity, fasted rats, samples given by gastric tube, occurrence of diarrhea observed in the following 24 hours; set-up: species or system Sprague-Dawly rat; settings: rat, in vivo, po, observed 24 hours, figures in parenthesis indicate confidence limit, read-out: ED50 diarrhea activity
Method: Each of five male Sprague-Dawly rats, 12 weeks old, in one group was fasted for 24 hours.

Row | Structure (SMILES) | anti-ulcer activity, in words [1] | diarrhea as a side effect, in words [2] | ED50 (male Sprague-Dawly rats) [mg/kg] | b)/a) (ED50 diarrhea / ED50 antiulcer) (male Sprague-Dawly rats) | TD50 at 24 h [3] [mg/kg]
1 | CCCCC[C@@](C)(O)/C=C/[C@H]1[C@H](O)CC(=O)[C@@H]1C/C=C\CCCC(=O)OC [A, 11α, 15(R)-dihydroxy-15-methyl-9-oxo-5(cis),13(trans)-prostadienoic acid methyl ester] | strong anti-ulcer activity | very severe diarrhea | 0.098 | 1.2 | 0.12
2 | CCCCC[C@](C)(O)/C=C/[C@H]1[C@H](O)CC(=O)[C@@H]1C/C=C\CCCC(=O)OC [B, 11α, 15(S)-dihydroxy-15-methyl-9-oxo-5(cis),13(trans)-prostadienoic acid methyl ester] |  |  | 0.06 | 0.8 | 0.047
3 | CCCCC[C@@](C)(O)/C=C/[C@H]1[C@H](O)CC(=O)[C@@H]1C/C=C\CC(C)CC(=O)OC (stereo partly drawn) [Compound C, 11α, 15(R)-dihydroxy-3,15-dimethyl-9-oxo-5(cis), 13(trans)-prostadienoic acid methyl ester] |  |  | 0.2 | 6.0 | 1.2
